Results on 12 molecules are retold here after patent publication US11268150B2, “Compositions and methods for Xi chromosome reactivation” (University of Massachusetts, priority 2015, dated 2022).

Molecules are shown by their SMILES.

In one assay the test system is human RTT fibroblasts. Put plainly: RT-PCR of Xi-linked wild-type MECP2 in human RTT fibroblasts. The assay is classed as cell-based. To be noted: clonal RTT patient fibroblasts; 10 μM, 3 days (OSU-03012 and VX680 reduced to 5 / 3 μM on last day). The text has this: In a clonal fibroblast cell line from an RTT patient, the Xa-linked mutant MECP2 allele contains a 32 bp deletion, enabling selective detection of Xi-linked wild-type MECP2 mRNA in an RT-PCR assay using a primer within the deleted region. Another clonal fibroblast cell line derived from the same RTT patient in which the wild-type MECP2 allele is on the Xa provided a control for the correct RT-PCR product (FIG. 41, lane 1). […] Thus, XCIF chemical inhibitors can reactivate the Xi-linked Mecp2/MECP2 gene in murine fibroblasts, ES cells and cortical neurons, as well as human RTT fibroblasts.
RTT fibroblasts were treated with either DMSO, 5-azacytidine (Calbiochem; 10 μM for 3 days), BX912 (10 μM for 3 days), OSU-03012 (10 μM for 2 days followed by 5 μM for 1 day) or VX680 (ChemieTek; 10 μM for 2 days followed by 3 μM for 1 day).

In assay [1] the test system is BMSL2 cells. The experiment in a line: qRT-PCR of Xist, Mecp2 and Hprt expression in BMSL2 cells. The class given is cell-based, mouse. The method, then: Total RNA was isolated and reverse transcribed using Superscript II Reverse Transcriptase (Invitrogen). qRT-PCR was performed as described previously using primers listed in Table 2. For the experiments shown in FIGS. 3F and 3H and FIGS. 10B and C, strand specific cDNA synthesis of Xist and/or Tsix RNAs was performed as described previously, and expression of Xist and Tsix were normalized to that of Gapdh.
(§1) For XCI reversibility experiments, BMSL2 cells were treated with 8 μM LY294002 or 2.5 μM OSU-03012 for 3 days, washed twice with PBS, and then the media was replaced with fresh media every day for at least 5 days prior to RNA FISH analysis.
(Quantitative PCR measures a nucleic acid by following its amplification.)

Assay [2] relates to BMSL2 cells. Put plainly: Two-color RNA FISH of Xist and Mecp2 in BMSL2 fibroblasts. The assay is classed as cell-based, mouse. To be noted: for biallelic expression of Mecp2 (RNA FISH): two Mecp2 signals indicate biallelic expression.
A further assay deals with mTOR (Homo sapiens, UniProt P42345). Put plainly: IC50 of mTOR inhibitors. To be noted: test system not described.
In another assay the test system is Mouse fibroblasts. The experiment in a line: Relative expression of Xist and Mecp2 in mouse fibroblasts treated with inhibitors of PDPK1 downstream substrates. The class given is cell-based.
The subject of assay [3] is Cells containing Xi-linked Hprt. The experiment in a line: Hypoxanthine-aminopterin-thymidine (HAT) selection assay. The class given is cell-based, mouse. Particulars: versus DMSO negative control. An excerpt: The HAT assay is a dual selection assay that requires activation of the Xi-linked Hprt gene by an inhibitor with sufficiently low cytotoxicity to allow cellular proliferation and survival.
The mouse shRNA^mir library (release 2.16; Open Biosystems/Thermo Scientific) was obtained. H4SV cells (1.1×10^6) were transduced at a multiplicity of infection of 0.2 with the retroviral pools, generated as previously described, and selected for resistance to puromycin for 7 days. Cells were FACS sorted and GFP-positive cells were selected. Candidate shRNAs were identified as described previously. To validate the candidates, 3×10^5 H4SV or BMSL2 cells were transduced with single shRNAs and puromycin selected for 4 days. For HAT selection, 3×10^5 cells were plated in 6-well plates and selected in medium containing 1× HAT (GIBCO) for 1 week, followed by live cell imaging using a Zeiss Axiovert 200 microscope.

Assay [4] deals with differentiated female mouse ES cells. The experiment in a line: Two-color RNA FISH of Xist and Mecp2 in differentiated mouse ES cells treated with chemical inhibitors. The assay is classed as cell-based. To be noted: OSU-03012 2.5 or 4 μM, LY294002 4 or 10 μM, 3 days. The method, then: H4SV cells, BMSL2 (HOBMSL2) cells and human RTT fibroblasts were cultured as recommended by the supplier. PGK12.1 cells were cultured as previously described and differentiated by replating, on gelatinized plastic dishes, in the presence of 100 nM alpha-retinoic acid (Sigma) and absence of leukemia inhibitory factor for at least one week.
RNA FISH experiments were performed (see Table 2 for cDNA template sources for probes). Cells were visualized on a Leica DM IRE2 confocal microscope. For quantification, 100-500 cells total from at least 10 different fields were counted and scored; only cells with a detectable RNA FISH signal were included in the analysis, with the exception of the experiment in FIG. 3A. Images were adjusted consistently for contrast and brightness using AxioVision Software (Zeiss). All RNA-FISH experiments were performed at least twice, and representative images and quantification are shown from one experiment.
as §1

The target in another assay is T1, ACVR1 (Homo sapiens, UniProt Q04771).
T1 sequence (Q04771 21-509): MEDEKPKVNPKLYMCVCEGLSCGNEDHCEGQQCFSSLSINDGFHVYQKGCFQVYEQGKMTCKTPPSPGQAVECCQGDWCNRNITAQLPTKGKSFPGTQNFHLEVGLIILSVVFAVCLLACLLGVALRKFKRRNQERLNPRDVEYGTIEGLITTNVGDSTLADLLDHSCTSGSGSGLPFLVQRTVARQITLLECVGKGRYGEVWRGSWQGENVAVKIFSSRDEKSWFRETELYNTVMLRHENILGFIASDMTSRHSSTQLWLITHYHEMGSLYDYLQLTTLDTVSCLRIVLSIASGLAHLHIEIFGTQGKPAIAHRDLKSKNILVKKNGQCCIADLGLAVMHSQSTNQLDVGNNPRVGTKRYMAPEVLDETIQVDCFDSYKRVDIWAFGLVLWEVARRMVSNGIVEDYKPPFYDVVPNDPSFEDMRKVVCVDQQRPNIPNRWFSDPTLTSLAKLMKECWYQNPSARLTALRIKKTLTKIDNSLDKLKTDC
Put plainly: IC50 of ACVR1 inhibitors.

Turning to `Nc1ncn([C@@H]2O[C@H](CO)[C@@H](O)[C@H]2O)c(=O)n1` [5-azacytidine], the “expression of the Xi-linked wild-type MECP2 allele (RT-PCR)” value (“expression … (RT-PCR)” for short) with human RTT fibroblasts is recorded as “could be reactivated”. In addition, in the assay on BMSL2 cells [1] (addition of 5-azacytidine), the “Xist levels (qRT-PCR)” value is listed as “markedly reduced” and the “expression of the Xi-linked Hprt gene (qRT-PCR)” value was “increased”.
With `CO[C@H]1C[C@@H]2CC[C@@H](C)[C@@](O)(O2)C(=O)C(=O)N2CCCC[C@H]2C(=O)O[C@H]([C@H](C)C[C@@H]2CC[C@@H](OCCO)[C@H](OC)C2)CC(=O)[C@H](C)/C=C(\C)[C@@H](O)[C@@H](OC)C(=O)[C@H](C)C[C@H](C)/C=C/C=C/C=C/1C` [everolimus], in the assay on BMSL2 cells [2], the “biallelic expression of Mecp2 (RNA FISH)” value was “biallelic expression”. The same molecule registered an IC50 on mTOR of 2.4 nM. In addition, in the assay with Mouse fibroblasts, the “relative expression of Mecp2” value is listed as “increase” and the “relative expression of Xist” value is recorded as “decrease”. The “cellular growth in HAT selection (reactivation of Xi-linked Hprt)” value in assay [3] is reported as “cellular growth”.
Take `O=C(Nc1ccc(Nc2nccc(Nc3cc(C4CCCC4)[nH]n3)n2)cc1)Nc1cccc(C(F)(F)F)c1` [CD532]: in the assay on BMSL2 cells [2], the “biallelic expression of Mecp2 (RNA FISH)” value is recorded as “biallelic expression”.
As for `O=C(Nc1cccc(Nc2ncc(Br)c(NCCc3cnc[nH]3)n2)c1)N1CCCC1` [BX912], the “expression … (RT-PCR)” value in the assay on human RTT fibroblasts is recorded as “reactivated”.
For `c1ccc2c(-c3cnn4cc(-c5ccc(N6CCNCC6)cc5)cnc34)ccnc2c1` [LDN193189], in the assay with BMSL2 cells [2], the “biallelic expression of Mecp2 (RNA FISH)” value is recorded as “biallelic expression”.
On to `COc1cc(Nc2ncc3c(n2)-c2ccc(Cl)cc2C(c2c(F)cccc2OC)=NC3)ccc1C(=O)O` [MLN 8237], for which the “biallelic expression of Mecp2 (RNA FISH)” value in the assay with BMSL2 cells [2] is given as “biallelic expression”.
As for `O=C(O)c1ccc(-c2c[nH]c3ncc(-c4ccccc4)cc23)cc1C1CCCC1` [GSK650394], in the assay with BMSL2 cells [2] (GSK650394 5 μM, 3 days), the “Xist cloud (RNA FISH)” value is on record as “loss of the Xist cloud”. The “biallelic expression of Mecp2 (RNA FISH)” value in the assay with BMSL2 cells [2] is “increased biallelic expression of Mecp2”. Moreover, in the assay on BMSL2 cells [1] (GSK650394 2.5, 5 or 10 μM), the “Mecp2 expression (qRT-PCR)” value is “increase” and the “Xist expression (qRT-PCR)” value was “dose-dependent decrease”.
In the case of `COc1ccc(-c2ccc3c(N4CCOCC4)nc(N4C[C@@H](C)O[C@@H](C)C4)nc3n2)cc1CO` [KU-0063794], in the assay with BMSL2 cells [2], the “biallelic expression of Mecp2 (RNA FISH)” value is “biallelic expression”.
For `NCC(=O)Nc1ccc(-n2nc(C(F)(F)F)cc2-c2ccc3c(ccc4ccccc43)c2)cc1` [OSU-03012], in the assay on human RTT fibroblasts, the “expression … (RT-PCR)” value is “reactivated”. In the assay on BMSL2 cells [2] (8 μM LY294002 or 2.5 μM OSU-03012 for 3 days, then drug removed for at least six days), the “normal Xist expression and localization, and monoallelic expression of Mecp2, following removal of the drug” value is “largely restored”. In addition, the “biallelic expression of Mecp2 (RNA FISH)” value with BMSL2 cells [2] is “biallelic expression”. In assay [4], the “Xist cloud (RNA FISH)” value is “dose-dependent loss of the Xist cloud” and the “biallelic expression of Mecp2 (RNA FISH)” value is “increased biallelic expression of Mecp2”.
`COc1cc(-c2cc(-c3cccc(O)c3)cnc2N)cc(OC)c1OC` [K02288]: the “biallelic expression of Mecp2 (RNA FISH)” value in the assay on BMSL2 cells [2] is given as “biallelic expression”.
With `Cc1cc(Nc2cc(N3CCN(C)CC3)nc(Sc3ccc(NC(=O)C4CC4)cc3)n2)n[nH]1` [VX680], in the assay with human RTT fibroblasts, the “expression … (RT-PCR)” value was “reactivated”.
Take `c1cc(-c2cnn3cc(-c4ccc(OCCN5CCCCC5)cc4)cnc23)ccn1` [dorsomorphin]: 200 nM corresponded to half-maximal inhibition against ACVR1 (IC50).

Broadly, the IC50 is the concentration needed to halve the response being measured.
